The values that follow are results of earlier work, collected in patent US20240082160A1, “AMLODIPINE DRY SUSPENSION AND PREPARATION METHOD THEREFOR” (GUANGZHOU APICHOPE PHARMACEUTICAL CO., LTD., priority 2021, published 2024).

Structures are written as SMILES.

Regarding `CCOC(=O)C1=C(COCCN)NC(C)=C(C(=O)OC)C1c1ccccc1Cl` (stereo not shown) [amlodipine besylate], the solubility in water entry was “slightly soluble in water”.
